From ChEMBL document CHEMBL1147504, “Synthesis of methylphenidate analogues and their binding affinities at dopamine and serotonin transport sites” (Bioorg Med Chem Lett, 2004)

Tests used:
[1] = […]; type: tissue-based, Frontal cortex
Dopamine receptor [2] = target: Dopamine receptor
Description: Potency of inhibiting 10 pM [125I]-RTI-55 binding to dopamine receptor in rat striatal membranes

[3] = target: Sodium-dependent serotonin transporter (Rattus norvegicus, UniProt P31652); assay: Ability to displace 0.4 nM [3H]paroxetine binding to serotonin transporter in rat frontal cortex; type: tissue-based
[4] = target: T1, Sodium-dependent dopamine transporter (Rattus norvegicus, UniProt P23977)
T1 sequence (P23977 whole entry): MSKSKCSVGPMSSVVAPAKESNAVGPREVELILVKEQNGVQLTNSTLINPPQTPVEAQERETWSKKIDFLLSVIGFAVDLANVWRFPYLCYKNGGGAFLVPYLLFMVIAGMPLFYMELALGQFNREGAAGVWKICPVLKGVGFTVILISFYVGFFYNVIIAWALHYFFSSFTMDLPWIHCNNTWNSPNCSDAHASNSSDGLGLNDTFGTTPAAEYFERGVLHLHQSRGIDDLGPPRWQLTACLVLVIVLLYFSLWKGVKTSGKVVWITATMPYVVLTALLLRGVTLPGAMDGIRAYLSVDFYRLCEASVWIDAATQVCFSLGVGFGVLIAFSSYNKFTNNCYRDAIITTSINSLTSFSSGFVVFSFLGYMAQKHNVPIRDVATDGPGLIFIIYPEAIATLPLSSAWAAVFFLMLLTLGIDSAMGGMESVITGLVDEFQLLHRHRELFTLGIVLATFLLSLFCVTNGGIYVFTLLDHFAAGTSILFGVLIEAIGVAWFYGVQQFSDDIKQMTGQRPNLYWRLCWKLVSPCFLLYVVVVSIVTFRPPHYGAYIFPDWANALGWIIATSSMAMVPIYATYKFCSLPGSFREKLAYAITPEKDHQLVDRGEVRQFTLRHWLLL
Description: Potency of inhibiting 10 pM [125I]RTI-55 binding to dopamine transporter in rat striatal membranes

Dopamine receptor [5] = assay: Potency of inhibiting [3H]WIN-35428 binding to […] in rat striatal membranes; type: cell membranes, Membrane
[6] = target: T1, Sodium-dependent dopamine transporter; assay: Inhibitory activity against dopamine transporter in rat striatal membranes; type: cell membranes, Striatum, Membrane

Sodium-dependent serotonin transporter, sequence (P31652 whole entry): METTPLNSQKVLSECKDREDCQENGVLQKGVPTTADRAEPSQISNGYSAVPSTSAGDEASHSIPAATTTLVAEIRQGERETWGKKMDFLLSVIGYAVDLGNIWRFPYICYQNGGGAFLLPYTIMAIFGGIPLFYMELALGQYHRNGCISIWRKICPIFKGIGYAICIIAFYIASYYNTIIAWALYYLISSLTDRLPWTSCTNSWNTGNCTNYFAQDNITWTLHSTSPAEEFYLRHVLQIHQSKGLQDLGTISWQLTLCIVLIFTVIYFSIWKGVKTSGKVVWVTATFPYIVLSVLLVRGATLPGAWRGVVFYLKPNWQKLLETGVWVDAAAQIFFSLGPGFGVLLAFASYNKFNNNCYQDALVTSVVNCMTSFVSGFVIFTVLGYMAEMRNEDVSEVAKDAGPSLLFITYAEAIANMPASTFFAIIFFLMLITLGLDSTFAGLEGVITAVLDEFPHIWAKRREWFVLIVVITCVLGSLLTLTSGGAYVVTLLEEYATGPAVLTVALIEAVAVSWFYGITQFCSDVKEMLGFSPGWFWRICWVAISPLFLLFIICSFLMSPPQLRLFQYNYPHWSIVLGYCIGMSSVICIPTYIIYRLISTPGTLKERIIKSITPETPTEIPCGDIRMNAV

Structure (SMILES)	Ki [1]	IC50 (Dopamine receptor [2])	Ki [3]	IC50 [4]	further results
COC(=O)[C@H](c1ccc2ccccc2c1)[C@H]1CCCCN1.Cl	94.8 nM	11.1 nM			
COC(=O)[C@H](c1ccc2cc(Br)ccc2c1)[C@@H]1CCCN1			5.5 nM	446 nM	
COC(=O)[C@@H](c1ccc2ccccc2c1)[C@H]1CCCN1			2020 nM		
COC(=O)[C@H](c1ccc2cc(OC)ccc2c1)[C@@H]1CCCN1			54.6 nM		
COC(=O)[C@H](c1ccc2ccccc2c1)[C@@H]1CCCN1			2.5 nM	465 nM	
COC(=O)[C@H](c1ccc(-c2ccccc2)cc1)[C@H]1CCCCN1.Cl (racemic)	> 10000 nM	1020 nM			
COC(=O)[C@H](c1ccccc1)[C@@H]1CCCN1 (racemic)			> 10000 nM	> 1000 nM	
COC(=O)[C@H](c1ccc2ccccc2c1)[C@H]1CCCCN1 (racemic)	71.6 nM				
COC(=O)[C@H](c1ccc(Cl)cc1)[C@H]1CCCN1 (racemic)			1080 nM	272 nM	
COC(=O)[C@H](c1ccc(Cl)cc1)[C@@H]1CCCCN1 (racemic)	> 10000 nM				
COC(=O)[C@H](c1ccc(Br)cc1)[C@@H]1CCCN1 (racemic)			> 10000 nM	637 nM	
COC(=O)[C@H](c1ccc2cc(Br)ccc2c1)[C@@H]1CCCN1 (racemic)			11.4 nM	195 nM	
COC(=O)[C@H](c1ccc(C)cc1)[C@H]1CCCN1 (racemic)			> 10000 nM	1930 nM	
COC(=O)[C@H](c1ccc(Cl)cc1)[C@H]1CCCCN1.Cl (racemic)	2220 nM	91.2 nM			IC50 (Dopamine receptor [5]): 20.6 nM
COC(=O)[C@H](c1ccccc1)[C@H]1CCCN1 (racemic)			> 10000 nM	3160 nM	IC50 [6]: 1340 nM
COC(=O)[C@H](c1ccccc1)[C@@H]1CCCCN1.Cl (racemic)	> 10000 nM	> 1000 nM			
COC(=O)[C@H](c1ccc(C)cc1)[C@@H]1CCCN1 (racemic)			> 10000 nM	> 1000 nM	
COC(=O)[C@H](c1ccc(C)cc1)[C@@H]1CCCCN1.Cl (racemic)	> 10000 nM	7430 nM			
COC(=O)[C@H](c1ccc2ccccc2c1)[C@@H]1CCCCN1.Cl (racemic)	105 nM	2080 nM			
COC(=O)[C@H](c1ccc2cc(OC)ccc2c1)[C@@H]1CCCN1 (racemic)			245 nM		
COC(=O)[C@H](c1ccc(Cl)c(Cl)c1)[C@@H]1CCCCN1.Cl (racemic)	> 10000 nM	33.8 nM			
COC(=O)[C@H](c1ccc(-c2ccccc2)cc1)[C@@H]1CCCCN1.Cl (racemic)	> 10000 nM	6470 nM			
COC(=O)[C@H](c1ccc(Cl)cc1)[C@@H]1CCCN1 (racemic)			1900 nM	> 1000 nM	
COC(=O)[C@H](c1ccc(C)cc1)[C@H]1CCCCN1.Cl (racemic)	> 10000 nM	114 nM			IC50 (Dopamine receptor [5]): 33 nM
COC(=O)[C@H](c1ccc2ccccc2c1)[C@@H]1CCCN1 (racemic)			4 nM	805 nM	
COC(=O)[C@H](c1ccc(Cl)c(Cl)c1)[C@H]1CCCCN1.Cl (racemic)	> 10000 nM	2.67 nM			IC50 (Dopamine receptor [5]): 5.3 nM
COC(=O)[C@H](c1ccccc1)[C@H]1CCCCN1.Cl (racemic) [DEXMETHYLPHENIDATE HYDROCHLORIDE]	> 10000 nM	164 nM			IC50 (Dopamine receptor [5]): 83 nM
COC(=O)[C@H](c1ccc2cc(C)ccc2c1)[C@@H]1CCCN1 (stereo in doubt)			2.3 nM	850 nM	
COC(=O)[C@H](c1ccc2cc(C)ccc2c1)[C@@H]1CCCN1 (stereo in doubt; 10i)			3.2 nM	1410 nM	
